In the supplement of paper PMC8671470:

Experiments:
Conditions in all cases: 72 h
[1] = test system: BV-173
In short: (§1)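 Fifteen myeloid leukaemia lines in RPMI 1640 were treated for 72 h at 37 °C and 5% CO2 with five tenfold doses from 1 to 10,000 nM, in duplicate. ATP luminescence was normalised to vehicle and to a positive control at 10 µM, then fitted with a four-parameter log-logistic model. The IC50 came from these fits.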

[2] = test system: HEL
In short: as §1

[3] = test system: K-562
In short: as §1

[4] = test system: KU-812
In short: as §1

[5] = test system: LAMA-84
In short: as §1

[6] = test system: MOLM-13
In short: as §1

[7] = test system: MV4-11
In short: as §1

[8] = test system: Mono-Mac-6
In short: as §1

[9] = test system: SHI-1
In short: as §1

[10] = test system: THP-1
In short: as §1

[11] = test system: myeloid leukemia patient primary cells Pat.10; assay: cell viability (% survival relative to DMSO control); higher = less cytotoxic
In short: (§2)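 Thawed mononuclear cells from AML or CML patients were purified on Ficoll and cultured for 72 h in RPMI 1640 with 10% FBS, at 10,000 cells/well, on 384-well plates carrying 70 pre-printed compounds at 1–10,000 nM in five tenfold steps, in duplicate. Viability came from CellTiter-Glo, normalised against DMSO and against 10 μM proteasome inhibitor. Any area under the curve given was derived from log-logistic curve fits in the drc and PharmacoGx R packages, and these fits had four parameters.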

[12] = test system: myeloid leukemia patient primary cells Pat.11; assay: as above
In short: as §2

[13] = test system: myeloid leukemia patient primary cells Pat.12; assay: as above
In short: as §2

[14] = test system: myeloid leukemia patient primary cells Pat.13; assay: as above
In short: as §2

[15] = test system: myeloid leukemia patient primary cells Pat.14; assay: as above
In short: as §2

[16] = test system: myeloid leukemia patient primary cells Pat.15; assay: as above
In short: as §2

[17] = test system: myeloid leukemia patient primary cells Pat.1; assay: as above
In short: as §2

[18] = test system: myeloid leukemia patient primary cells Pat.2; assay: as above
In short: as §2

[19] = test system: myeloid leukemia patient primary cells Pat.3; assay: as above
In short: as §2

[20] = test system: myeloid leukemia patient primary cells Pat.4; assay: as above
In short: as §2

[21] = test system: myeloid leukemia patient primary cells Pat.5; assay: as above
In short: as §2

[22] = test system: myeloid leukemia patient primary cells Pat.6; assay: as above
In short: as §2

[23] = test system: myeloid leukemia patient primary cells Pat.7; assay: as above
In short: as §2

[24] = test system: myeloid leukemia patient primary cells Pat.8; assay: as above
In short: as §2

[25] = test system: myeloid leukemia patient primary cells Pat.9; assay: as above
In short: as §2

[26] = test system: HL-60; assay: area under dose-response curve (viability, 1 nM-10 uM) (fraction (0-1)); higher = more sensitive
In short: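 A rescreen of the full library used HL-60 cells in RPMI 1640 with 10% FBS on 384-well plates, run in duplicate at five tenfold concentrations (1–10,000 nM). Each screen included DMSO or 100 nM of one of three metabolic inhibitors and ran 72 h at 37 °C, 5% CO2. CellTiter-Glo viability was scaled between DMSO and 10 μM proteasome-inhibitor wells. Any area under the curve comes from four-parameter log-logistic fits with drc and PharmacoGx.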

CC(C)(C)c1ccc(S(=O)(=O)NCc2ccc(C(=O)Nc3cccnc3)cc2)cc1 [STF-31]
Conditions | IC50 (cell viability) [µM]
[1] | 0.0383
[2] | 0.0738
[3] | 0.242
[4] | 0.109
[5] | 0.169
[6] | 3.57
[7] | 0.0451
[8] | 0.548
[9] | > 10
[10] | > 10

Conditions | area under dose-response curve, co-treatment: AZD3965 100 nM | area under dose-response curve, co-treatment: DMSO vehicle | area under dose-response curve, co-treatment: GSK2194069 100 nM | area under dose-response curve, co-treatment: pictilisib 100 nM | cell viability, 1 nM [%] | cell viability, 10 nM [%] | cell viability, 100 nM [%] | cell viability, 1000 nM [%] | cell viability, 10000 nM [%]
[11] | – | – | – | – | 56.6 | 35 | 64.9 | < 0 | 4.94
[12] | – | – | – | – | 95.5 | 92.3 | 99.3 | 2.57 | 1.37
[13] | – | – | – | – | 96.2 | 96.2 | 92.7 | 7.74 | 4.47
[14] | – | – | – | – | 94.8 | 87.8 | 87.7 | 8.95 | 9.54
[15] | – | – | – | – | 74.9 | 62.1 | 9.36 | 1.38 | < 0
[16] | – | – | – | – | 87.8 | 90.9 | 89.8 | 2.3 | 1.11
[17] | – | – | – | – | 95.2 | 82 | > 100 | 31.6 | 16.5
[18] | – | – | – | – | 98.4 | 96.8 | 84.9 | 13.2 | 11.4
[19] | – | – | – | – | 90.6 | 45.5 | 6.65 | 2.19 | 1.78
[20] | – | – | – | – | 84.9 | 83.8 | 18 | 1.84 | 1.54
[21] | – | – | – | – | 78.8 | 6.66 | 0.912 | 0.265 | 2.27
[22] | – | – | – | – | 98 | 85.7 | 71.1 | 21.7 | 28.8
[23] | – | – | – | – | 80.1 | 62.7 | 7.78 | < 0 | < 0
[24] | – | – | – | – | 97.5 | 87 | 63 | 6.59 | 9.06
[25] | – | – | – | – | 72.4 | 28.7 | 7.17 | < 0 | 0.773
[26] | 0.328 | 0.342 | 0.362 | 0.324 | – | – | – | – | –

Cn1cc(-c2ccncc2)c(-c2ccc(OCc3ccc4ccccc4n3)cc2)n1
Conditions | IC50 (cell viability) [µM]
[1] | > 10
[2] | 9.86
[3] | > 10
[4] | 8.42
[5] | > 10
[6] | 1.74
[7] | 2.09
[8] | > 10
[9] | > 10
[10] | > 10

cell viability [%]
Conditions | 1 nM | 10 nM | 100 nM | 1000 nM | 10000 nM
[11] | 95 | 65 | 78.5 | 44.2 | 54.7
[12] | 99.1 | 98.1 | > 100 | 87.9 | 99.3
[13] | 98.4 | 97 | > 100 | 82.3 | 87.9
[14] | 88.2 | 87 | 87.9 | 70.8 | 53.5
[15] | 82.6 | 86.8 | 86.7 | 50.1 | 43.4
[16] | 94.3 | 84.7 | 97.6 | 83.1 | 75.2
[17] | 82.2 | 91.2 | 97.1 | 73 | 73.6
[18] | 94.2 | 94.8 | 98.5 | 77.3 | 80.2
[19] | 91.6 | 90.2 | > 100 | 48.8 | 29.9
[20] | 93.5 | 82.6 | 90.3 | 85.4 | 97
[21] | 26.3 | 1.33 | 18 | 0.265 | < 0
[22] | 94.1 | 88.2 | 95.8 | 73.5 | 68.8
[23] | 90.5 | 73.5 | 82.7 | 17.1 | 32.4
[24] | 81 | 89.1 | 93.4 | 74.4 | 83.6
[25] | 62.4 | 36.5 | 32.9 | 3.45 | 11.7

c1cc(-c2cnn3cc(-c4ccc(OCCN5CCCCC5)cc4)cnc23)ccn1 [Dorsomorphin]
Conditions | IC50 (cell viability) [µM]
[1] | 7.28
[2] | > 10
[3] | > 10
[4] | 2.6
[5] | 6.49
[6] | > 10
[7] | > 10
[8] | 0.811
[9] | > 10
[10] | > 10

Conditions | area under dose-response curve, co-treatment: AZD3965 100 nM | area under dose-response curve, co-treatment: DMSO vehicle | area under dose-response curve, co-treatment: GSK2194069 100 nM | area under dose-response curve, co-treatment: pictilisib 100 nM | cell viability, 1 nM [%] | cell viability, 10 nM [%] | cell viability, 100 nM [%] | cell viability, 1000 nM [%] | cell viability, 10000 nM [%]
[11] | – | – | – | – | 17.6 | 76.4 | 61.4 | 27.6 | 38.4
[12] | – | – | – | – | 95.2 | > 100 | 90.4 | 79.8 | 43.8
[13] | – | – | – | – | 98.5 | 97.1 | 98.5 | 92 | 91.6
[14] | – | – | – | – | 88.2 | 94.5 | 64.7 | 50.7 | 48.6
[15] | – | – | – | – | 48.1 | 100 | 53 | 84.5 | 60.8
[16] | – | – | – | – | 88.3 | 90.6 | 95.6 | 92.5 | 24.9
[17] | – | – | – | – | 76.7 | 93.2 | 78.1 | 65.8 | 27.8
[18] | – | – | – | – | 95.8 | 99.8 | 92.5 | > 100 | 59.4
[19] | – | – | – | – | 64.7 | 99.1 | 67.9 | 86.3 | 34.1
[20] | – | – | – | – | 86.7 | 91.5 | 90.1 | 56.8 | 35.9
[21] | – | – | – | – | 3.45 | 81.3 | 5.46 | 1.33 | 10.2
[22] | – | – | – | – | 84.6 | > 100 | 73.2 | 83.4 | 72.5
[23] | – | – | – | – | 25.4 | 95.4 | 65 | 89.5 | 30.9
[24] | – | – | – | – | 77.5 | 99 | 92.6 | 81.6 | 68.6
[25] | – | – | – | – | 41.6 | > 100 | 11.5 | 41.3 | 18.7
[26] | 0.0329 | 0.0501 | < 0.0301 | 0.112 | – | – | – | – | –
